Test results reported in ChEMBL document CHEMBL1201862, “PubChem BioAssay data set” (2004).
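Values below derive from 48-hour exposures of cells grown in 96-well plates, with endpoints linearly interpolated between the two concentrations bracketing the appropriate inhibition level. GI50 is the concentration that inhibits growth by half.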 Active and inactive are the calls of the source. Rule as the data show it: active = GI50 up to about 1.1 µM and inactive = higher.

Key:
Experiment in all cases: NCI anticancer screen, dose series, 48 h
786-0 = system: 786-0
A549 = system: A549
HL-60 = system: HL-60
HOP-62 = system: HOP-62
K562 = system: K562
KM12 = system: KM12
NCI-H226 = system: NCI-H226
OVCAR-5 = system: OVCAR-5
RPMI-8226 = system: RPMI-8226
SF-295 = system: SF-295
SK-MEL-2 = system: SK-MEL-2
SK-MEL-5 = system: SK-MEL-5
SK-OV-3 = system: SK-OV-3
SNB-75 = system: SNB-75
SR = system: SR
U-251 = system: U-251
UACC-257 = system: UACC-257

Question: What does the source list for `Cn1c(=O)n(C2(C)C[Se]C2)c2ccccc21`?
Answer: GI50 (786-0): > 100 µM (inactive); GI50 (A549): > 100 µM (inactive); GI50 (HL-60): > 100 µM (inactive); GI50 (HOP-62): > 100 µM (inactive); GI50 (K562): > 100 µM (inactive); GI50 (KM12): > 100 µM (inactive); GI50 (NCI-H226): > 100 µM (inactive); GI50 (OVCAR-5): > 100 µM (inactive); GI50 (RPMI-8226): > 100 µM (inactive); GI50 (SF-295): > 100 µM (inactive); GI50 (SK-MEL-2): > 100 µM (inactive); GI50 (SK-MEL-5): > 100 µM (inactive); GI50 (SK-OV-3): > 100 µM (inactive); GI50 (SNB-75): > 100 µM (inactive); GI50 (SR): > 100 µM (inactive); GI50 (U-251): > 100 µM (inactive); GI50 (UACC-257): > 100 µM (inactive)

Question: What does the source list for `COC1=C(N)C(=O)c2nc(C)ccc2C1=O`?
Answer: GI50 (786-0): 1.98 µM (inactive); GI50 (A549): 2.18 µM (inactive); GI50 (HL-60): 2.94 µM (inactive); GI50 (HOP-62): 1.57 µM (inactive); GI50 (KM12): 1.87 µM (inactive); GI50 (NCI-H226): 1.04 µM (active); GI50 (OVCAR-5): 1.98 µM (inactive); GI50 (RPMI-8226): 5.21 µM (inactive); GI50 (SF-295): 1.79 µM (inactive); GI50 (SK-MEL-2): 1.74 µM (inactive); GI50 (SK-MEL-5): 1.7 µM (inactive); GI50 (SK-OV-3): 8.04 µM (inactive); GI50 (SNB-75): 2.03 µM (inactive); GI50 (SR): 2.94 µM (inactive); GI50 (U-251): 2.2 µM (inactive); GI50 (UACC-257): 1.47 µM (inactive)

Question: How did the GI50 (786-0) turn out when `CC(C)(C)Sc1nnc(SC(C)(C)C)c2c(SC(C)(C)C)nnc(O)c12` was run?
Answer: The GI50 was 10.1 µM (inactive).

Question: And the GI50 (A549)?
Answer: The GI50 was 4.59 µM (inactive).

Question: And the GI50 (HL-60)?
Answer: The GI50 was 2.14 µM (inactive).

Question: And the GI50 (HOP-62)?
Answer: The GI50 was 13.9 µM (inactive).

Question: And the GI50 (K562)?
Answer: The GI50 was 4.74 µM (inactive).

Question: What about the GI50 (KM12) of the same compound?
Answer: Its GI50 is 12.9 µM (inactive).

Question: And the GI50 (NCI-H226)?
Answer: The GI50 was 15.2 µM (inactive).

Question: What about the GI50 (OVCAR-5) of the same compound?
Answer: The GI50 was 4.61 µM (inactive).

Question: And the GI50 (RPMI-8226)?
Answer: The GI50 was 2.8 µM (inactive).

Question: What about the GI50 (SF-295) of the same compound?
Answer: The GI50 was 11.4 µM (inactive).

Question: What about the GI50 (SK-MEL-5) of the same compound?
Answer: The GI50 was 5.35 µM (inactive).

Question: And the GI50 (SK-OV-3)?
Answer: Its GI50 is 17.9 µM (inactive).

Question: What about the GI50 (SNB-75) of the same compound?
Answer: The GI50 was 11.8 µM (inactive).

Question: What about the GI50 (SR) of the same compound?
Answer: Its GI50 is 4.14 µM (inactive).

Question: And the GI50 (U-251)?
Answer: Its GI50 is 5.62 µM (inactive).

Question: And the GI50 (UACC-257)?
Answer: Its GI50 is 13.6 µM (inactive).

Question: What does the source list for `CC1=NNC(=O)C2CCC(=O)N12` (centres undefined)?
Answer: GI50 (786-0): > 100 µM (inactive); GI50 (A549): > 100 µM (inactive); GI50 (HL-60): > 100 µM (inactive); GI50 (HOP-62): > 100 µM (inactive); GI50 (K562): > 100 µM (inactive); GI50 (KM12): > 100 µM (inactive); GI50 (NCI-H226): > 100 µM (inactive); GI50 (RPMI-8226): > 100 µM (inactive); GI50 (SK-MEL-2): > 100 µM (inactive); GI50 (SK-MEL-5): > 100 µM (inactive); GI50 (SK-OV-3): > 100 µM (inactive); GI50 (SNB-75): > 100 µM (inactive); GI50 (SR): > 100 µM (inactive); GI50 (U-251): > 100 µM (inactive); GI50 (UACC-257): > 100 µM (inactive)

Question: Which results are given for `CCOC(=O)C(C(=O)OCC)P(=S)(S)c1ccccc1` (centres undefined)?
Answer: GI50 (786-0): > 100 µM (inactive); GI50 (A549): > 100 µM (inactive); GI50 (HL-60): > 100 µM (inactive); GI50 (HOP-62): > 100 µM (inactive); GI50 (K562): > 100 µM (inactive); GI50 (KM12): > 100 µM (inactive); GI50 (NCI-H226): > 100 µM (inactive); GI50 (OVCAR-5): > 100 µM (inactive); GI50 (SF-295): > 100 µM (inactive); GI50 (SK-MEL-2): > 100 µM (inactive); GI50 (SK-MEL-5): > 100 µM (inactive); GI50 (SK-OV-3): > 100 µM (inactive); GI50 (SR): > 100 µM (inactive); GI50 (U-251): > 100 µM (inactive); GI50 (UACC-257): > 100 µM (inactive)

Question: Which GI50 (786-0) does the source give for `OC12c3ccccc3C1CCCCCCCCCC21OCCO1` (centres undefined) here?
Answer: The GI50 was > 100 µM (inactive).

Question: What about the GI50 (A549) of the same compound?
Answer: The GI50 was > 100 µM (inactive).

Question: What about the GI50 (HOP-62) of the same compound?
Answer: The GI50 was > 100 µM (inactive).

Question: And the GI50 (K562)?
Answer: Its GI50 is > 100 µM (inactive).

Question: And the GI50 (KM12)?
Answer: The GI50 was > 100 µM (inactive).

Question: And the GI50 (NCI-H226)?
Answer: Its GI50 is > 100 µM (inactive).

Question: What about the GI50 (OVCAR-5) of the same compound?
Answer: The GI50 was > 100 µM (inactive).

Question: What about the GI50 (RPMI-8226) of the same compound?
Answer: Its GI50 is > 100 µM (inactive).

Question: What about the GI50 (SF-295) of the same compound?
Answer: Its GI50 is > 100 µM (inactive).

Question: What about the GI50 (SK-MEL-2) of the same compound?
Answer: The GI50 was > 100 µM (inactive).

Question: What about the GI50 (SK-MEL-5) of the same compound?
Answer: Its GI50 is > 100 µM (inactive).

Question: What about the GI50 (SK-OV-3) of the same compound?
Answer: The GI50 was > 100 µM (inactive).

Question: And the GI50 (SNB-75)?
Answer: The GI50 was > 100 µM (inactive).

Question: And the GI50 (U-251)?
Answer: Its GI50 is > 100 µM (inactive).

Question: And the GI50 (UACC-257)?
Answer: Its GI50 is > 100 µM (inactive).
